# Assay results from US10927110B2, “Cyano-subtituted heterocycles with activity as inhibitors of USP30” (MISSION THERAPEUTICS LIMITED, priority 2016, dated 2021).
# Biological target: USP30 (Homo sapiens (Human), UniProt Q70CQ3)
# Test: USP30 Biochemical IC50 Assay
# Details: fluorescence polarisation, TAMRA labelled peptide linked to ubiquitin; 30 min pre-incubation, read after 2 h at room temperature; read-out: IC50 range
# Method: USP30 Biochemical IC50 Assay
# Dilution plates were prepared at 21 times the final concentration (2100 μM for a final concentration of 100 μM) in 50% DMSO in a 96-well polypropylene V-bottom plate (Greiner #651201). A typical 8-point dilution series would be 100, 30, 10, 3, 1, 0.3, 0.1, […]. Reactions were performed in duplicate in black 384 well plates (small volume, Greiner 784076) in a final reaction volume of 21 μl. Either 1 μl of 50% DMSO or diluted compound was added to the plate. USP30 was diluted in reaction buffer (40 mM Tris, pH 7.5, 0.005% Tween 20, 0.5 mg/ml BSA, 5 mM beta-mercaptoethanol) to the equivalent of 0.05 μl/well and 10 μl of diluted USP30 was added to the compound. Enzyme and compound were incubated for 30 min at room temp. Reactions were initiated by the addition of 50 nM of TAMRA labelled peptide linked to ubiquitin via an iso-peptide bond as fluorescence polarisation substrate. Reactions were read immediately after addition of substrate and following a 2 h incubation at room temperature. Readings were performed on a Pherastar Plus (BMG Labtech). λ Excitation 540 nm; λ Emission 590 nm.
# USP30, sequence (Q70CQ3 57-517): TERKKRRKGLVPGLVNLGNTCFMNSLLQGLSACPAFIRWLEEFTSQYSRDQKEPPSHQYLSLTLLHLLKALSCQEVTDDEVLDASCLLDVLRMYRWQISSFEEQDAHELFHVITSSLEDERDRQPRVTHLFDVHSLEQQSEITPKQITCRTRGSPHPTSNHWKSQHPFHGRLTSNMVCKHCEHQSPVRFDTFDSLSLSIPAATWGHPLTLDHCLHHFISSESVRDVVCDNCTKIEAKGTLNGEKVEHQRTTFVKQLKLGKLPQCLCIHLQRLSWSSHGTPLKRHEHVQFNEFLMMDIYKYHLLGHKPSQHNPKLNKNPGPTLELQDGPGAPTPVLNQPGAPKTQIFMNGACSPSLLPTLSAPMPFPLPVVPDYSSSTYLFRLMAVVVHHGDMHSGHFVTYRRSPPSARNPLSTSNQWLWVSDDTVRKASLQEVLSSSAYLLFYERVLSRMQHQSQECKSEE
row,SMILES,IC50 [nM]
1,"N#Cc1cccc(-c2ccc3nc(C4(F)CCCN(C#N)C4)[nH]c3n2)c1 (stereo in doubt) [Example 16, (S)-3-(5-(3-cyanophenyl)-3H-imidazo[4,5-b]pyridin-2-yl)-3-fluoropiperidine-1-carbonitrile]",10 to 100
2,"N#CN1CCOC(c2nc(-c3cccc(-c4ccccc4)c3)n[nH]2)C1 (centres unmarked) [Example 6, 2-(3-([1,1′-Biphenyl]-3-yl)-H-1,2,4-triazol-5-yl)morpholine-4-carbonitrile]",1000 to 10000
3,"N#CN1CCCC(F)(c2nnc(-c3ccc(-c4ccccc4)cc3)o2)C1 (centres unmarked) [Example 10, 3-(5-([1,1′-biphenyl]-4-yl)-1,3,4-oxadiazol-2-yl)-3-fluoropiperidine-1-carbonitrile]",100 to 1000
4,"N#CN1CCCC(F)(c2nc3ccc(-c4ccn[nH]4)cc3[nH]2)C1 (centres unmarked) [Example 14, 3-(6-(H-pyrazol-5-yl)-1H-benzo[d]imidazol-2-yl)-3-fluoropiperidine-1-carbonitrile]",1000 to 10000
5,"N#Cc1cc(-c2cnc3nc([C@@]4(F)CCCN(C#N)C4)[nH]c3c2)ccn1 [Example 18, (R)-4-(2-(1-cyano-3-fluoropiperidin-3-yl)-3H-imidazo[4,5-b]pyridin-6-yl)picolinonitrile]",100 to 1000
6,"N#Cc1cccc(-c2ccc3oc([C@@]4(F)CCCN(C#N)C4)nc3c2)c1 [Example 22, (R)-3-(5-(3-cyanophenyl)benzo[d]oxazol-2-yl)-3-fluoropiperidine-1-carbonitrile]",10 to 100
7,"N#Cc1cc(-c2ccc3oc([C@@]4(F)CCCN(C#N)C4)nc3c2)ncn1 [Example 23, (R)-6-(2-(1-cyano-3-fluoropiperidin-3-yl)benzo[d]oxazol-5-yl)pyrimidine-4-carbonitrile]",100 to 1000
8,"N#Cc1ccnc(-c2ccc3oc([C@@]4(F)CCCN(C#N)C4)nc3c2)c1 [Example 26, (R)-2-(2-(1-cyano-3-fluoropiperidin-3-yl)benzo[d]oxazol-5-yl)isonicotinonitrile]",100 to 1000
9,"N#Cc1cccc(-c2cnc3nc(C4(F)CCCN(C#N)C4)oc3c2)c1 (centres unmarked) [Example 29, 3-(6-(3-cyanophenyl)oxazolo[4,5-b]pyridin-2-yl)-3-fluoropiperidine-1-carbonitrile]",100 to 1000
10,"N#Cc1cc(-c2cnc3oc([C@@]4(F)CCCN(C#N)C4)nc3c2)ccn1 [Example 30, (R)-4-(2-(1-cyano-3-fluoropiperidin-3-yl)oxazolo[5,4-b]pyridin-6-yl)picolinonitrile]",100 to 1000

# Now from value to compound:
row,IC50 [nM],SMILES
1,1000 to 10000,"N#CN1CCCC(F)(c2nc3ccc(-c4ccn[nH]4)nc3[nH]2)C1 (racemic) [Example 17, 3-(5-(1H-pyrazol-5-yl)-3H-imidazo[4,5-b]pyridin-2-yl)-3-fluoropiperidine-1-carbonitrile]"
2,100 to 1000,"N#Cc1cccc(-c2cnc3oc([C@@]4(F)CCCN(C#N)C4)nc3c2)c1 (stereo in doubt) [Example 28, 3-(6-(3-cyanophenyl)oxazolo[5,4-b]pyridin-2-yl)-3-fluoropiperidine-1-carbonitrile]"
3,10 to 100,"N#CN1CCC[C@](F)(c2nnc(-c3cccc(-c4ccccc4)c3)o2)C1 [Example 9, (R)-3-(5-([1,1′-biphenyl]-3-yl)-1,3,4-oxadiazol-2-yl)-3-fluoropiperidine-1-carbonitrile]"
4,100 to 1000,"N#Cc1cc(-c2cc(-c3nnc([C@@]4(F)CCCN(C#N)C4)o3)ccn2)ccn1 [Example 11, (R)-4-(5-(1-cyano-3-fluoropiperidin-3-yl)-1,3,4-oxadiazol-2-yl)-[2,4′-bipyridine]-2′-carbonitrile]"
5,1000 to 10000,"N#Cc1cc(-c2nnc([C@@]3(F)CCCN(C#N)C3)o2)ccn1 [Example 12, (R)-4-(5-(1-cyano-3-fluoropiperidin-3-yl)-1,3,4-oxadiazol-2-yl)picolinonitrile]"
6,1000 to 10000,"N#Cc1cc(-c2ccnc(-c3nnc([C@@]4(F)CCCN(C#N)C4)o3)c2)ccn1 [Example 13, (R)-2′-(5-(1-cyano-3-fluoropiperidin-3-yl)-1,3,4-oxadiazol-2-yl)-[4,4′-bipyridine]-2-carbonitrile]"
7,100 to 1000,"N#CN1CCC[C@](F)(c2nc3ccc(-c4ccccc4)nc3[nH]2)C1 [Example 15, (R)-3-fluoro-3-(5-phenyl-3H-imidazo[4,5-b]pyridin-2-yl)piperidine-1-carbonitrile]"
8,100 to 1000,"N#Cc1cc(-c2ccc3nc([C@@]4(F)CCCN(C#N)C4)[nH]c3n2)ccn1 [Example 19, (R)-4-(2-(1-cyano-3-fluoropiperidin-3-yl)-1H-imidazo[4,5-b]pyridin-5-yl)picolinonitrile]"
9,1000 to 10000,"N#Cc1cccc(-c2ccc3nc([C@@]4(F)CCCN(C#N)C4)[nH]c3n2)n1 [Example 21, (R)-6-(2-(1-cyano-3-fluoropiperidin-3-yl)-3H-imidazo[4,5-b]pyridin-5-yl)picolinonitrile]"
10,100 to 1000,"N#Cc1ccnc(-c2ccc3oc([C@@]4(F)CCCN(C#N)C4)nc3c2)n1 [Example 24, (R)-2-(2-(1-cyano-3-fluoropiperidin-3-yl)benzo[d]oxazol-5-yl)pyrimidine-4-carbonitrile]"
11,10 to 100,"N#Cc1cc(-c2ccc3oc([C@@]4(F)CCCN(C#N)C4)nc3c2)ccn1 [Example 25, (R)-4-(2-(1-cyano-3-fluoropiperidin-3-yl)benzo[d]oxazol-5-yl)picolinonitrile]"
12,100 to 1000,"N#Cc1cc(-c2ccc3nc([C@@]4(F)CCCN(C#N)C4)oc3c2)ccn1 [Example 27, (R)-4-(2-(1-cyano-3-fluoropiperidin-3-yl)benzo[d]oxazol-6-yl)picolinonitrile]"
13,100 to 1000,"N#Cc1cc(-c2ccn3cc([C@@]4(F)CCCN(C#N)C4)nc3c2)ccn1 [Example 31, (R)-4-(2-(1-cyano-3-fluoropiperidin-3-yl)imidazo[1,2-a]pyridin-7-yl)picolinonitrile]"
